Experimental findings from PubChem BioAssay (NCI) are described below.

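In this assay, cells in 96-well plates receive the compound at five concentrations for 48 hours. Endpoints are linearly interpolated between the surrounding concentrations. GI50 = concentration required for 50% inhibition of growth. TGI marks complete inhibition of growth.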

Among the test systems are SNB-19 CNS; T-47D breast; SW-620 colon; COLO 205 colon; IGROV1 ovarian; NCI-H226 lung; NCI-H522 lung; HOP-62 NSCLC; HCT-15 colon; A498 renal.
Experiment in all cases: growth of human tumour cells (NCI), 48 h

`CC(C)(Cl)CCC1=C(Cl)C(=O)c2ccccc2C1=O`: the GI50 was 4.22 µM in the assay with SNB-19 CNS; 1.97 µM with T-47D breast; 1740 nM in the assay with SW-620 colon; 2.07 µM in the assay on COLO 205 colon; 2350 nM in the assay with IGROV1 ovarian; 3.38 µM with NCI-H226 lung. In addition, the GI50 is 586 nM with NCI-H522 lung, 4.71 µM in the assay with HOP-62 NSCLC, 1580 nM in the assay on HCT-15 colon and 1.85 µM in the assay with A498 renal. For the same molecule, the TGI in the assay with SNB-19 CNS is 17.1 µM; in the assay with T-47D breast, 5.52 µM; in the assay on SW-620 colon it was 3.63 µM; in the assay on COLO 205 colon, 4.12 µM; in the assay with IGROV1 ovarian, 5.22 µM; in the assay on NCI-H226 lung, 14.5 µM. Further, the TGI in the assay on NCI-H522 lung stood at 1.91 µM; in the assay with HOP-62 NSCLC, 17 µM; in the assay with HCT-15 colon, 3.05 µM; in the assay on A498 renal, 12 µM.

Take `Nc1nc(N)c2nc(CNc3ccc(C(=O)CC(CCC(=O)O)C(=O)O)cc3)cnc2n1` (stereo not given): the GI50 with SNB-19 CNS was 0.627 µM; with T-47D breast, over 100 µM; in the assay on SW-620 colon it was 33.2 nM; in the assay on COLO 205 colon, 5.77 µM; in the assay on IGROV1 ovarian it was 465 nM; with NCI-H226 lung, 1.07 µM. In addition, the GI50 was 470 nM in the assay with NCI-H522 lung, 0.127 µM in the assay on HOP-62 NSCLC, 168 nM with HCT-15 colon and 3.15 µM with A498 renal. The TGI in the assay with SNB-19 CNS, in the assay on T-47D breast, in the assay on SW-620 colon, with COLO 205 colon, in the assay on IGROV1 ovarian and with NCI-H226 lung was over 100 µM each time. Further, the TGI with NCI-H522 lung, in the assay with HOP-62 NSCLC, in the assay on HCT-15 colon and in the assay on A498 renal was over 100 µM in each case.

`CN1CCN(C(=O)c2ccc(NC(=O)Nc3ccc(N(C)c4ccnc(Nc5ccc(CS(C)(=O)=O)cc5)n4)cc3)cc2)CC1`: the GI50 in the assay on SNB-19 CNS was 12.7 µM; in the assay on T-47D breast it was 4.68 µM; in the assay on SW-620 colon, 11000 nM; in the assay on COLO 205 colon, 13 µM; with IGROV1 ovarian it was over 16400 nM; in the assay on NCI-H226 lung it was 6.79 µM. Also, the GI50 in the assay with NCI-H522 lung is 7650 nM; with HOP-62 NSCLC, 7.61 µM; in the assay with HCT-15 colon, over 25000 nM; in the assay with A498 renal, over 25 µM. The TGI was over 25 µM with SNB-19 CNS; 19.7 µM with T-47D breast; over 25 µM with SW-620 colon; over 25 µM in the assay with COLO 205 colon; over 25 µM in the assay on IGROV1 ovarian; over 25 µM in the assay on NCI-H226 lung. Further, the TGI with NCI-H522 lung, in the assay on HOP-62 NSCLC, in the assay on HCT-15 colon and in the assay with A498 renal was over 25 µM in each case.
